We go through 3 compounds from patent US9532984B2, “Therapeutic combination for cancer treatment” (The Translational Genomics Research Institute, priority 2011, dated 2017).

Molecules are shown by their SMILES.

The term IC50 denotes the point on the concentration scale where inhibition reaches its midpoint.

Assay [1] concerns SW48 KRas Kras G12D cells. Put plainly: Cancer cell growth inhibition (cell proliferation), SW48 Kras G12D. Type of assay: cell-based. The settings on record: Homo sapiens. The method, then: (§1) The experiments involved a broad testing of multiple concentrations of metformin, phenformin and pioglitazone against fixed concentrations of the autophagy inhibitors. […] Similar tests were carried out in mouse models.

The test system of assay [2] is SW48 KRas Kras G12V cells. Put plainly: Cancer cell growth inhibition (cell proliferation), SW48 Kras G12V. Format: cell-based. The settings on record: Homo sapiens. As for the experimental part:
as §1

Another assay concerns SW48 KRas Kras WT cells. Nature of the assay: Cancer cell growth inhibition (cell proliferation), SW48 Kras WT. Format: cell-based. The conditions noted are these: Homo sapiens. As for the experimental part:
as §1

Assay [3] deals with BxPC-3 human pancreatic tumor xenograft. The method, then: BxPC-3 is a human pancreatic cancer cells obtained from the American Type Culture Collection and maintained as recommended. Female mice were inoculated subcutaneously in the right flank with 0.1 ml of a 50% RPMI/50% Matrigel™ (BD Biosciences, Bedford, Mass.) mixture containing a suspension of BxPC-3 human pancreatic tumor cells (approximately 5×10^6 cells/mouse). RPMI, a bicarbonate buffering system, and Matrigel™, a gelatinous protein mixture, support growth of many types of cultured cells including human normal and neoplastic leukocytes.
When tumors reached approximately 135 mg, mice were randomized into treatment groups. Body weights were recorded when the mice were randomized into groups and were weighted twice per week (on Study Days 3 and 7 for each cycle) thereafter in conjunction with tumor measurements. Group 1 mice were treated with vehicle control containing 5% DMA, 10% propylene glycol, 20% PEG 400, and 65% sterile water. Group 2 mice were treated with metformin only. Group 3 mice were treated with autophagy inhibitor in combination with metformin. Treatment began on the day of randomization. Metformin was delivered orally ad libitum in water. The autophagy inhibitor was delivered daily for 12 days in a vehicle of 5% DMA, 10% propylene glycol, 20% PEG 400, and 65% sterile water.

On to `CN(C)C(=N)N=C(N)N` [Metformin, metformin], for which the IC50 was 1300 µM in assay [1] (no autophagy inhibitor); < 20 µM in assay [1] (with fixed Mefloquine 1 μM); 900 µM in assay [1] (with fixed Mefloquine 3 μM); 100 µM in assay [1] (with fixed Primaquine 1 μM); > 10000 µM in assay [1] (with fixed Primaquine 3 μM); 1100 µM in assay [1] (with fixed Quinicrine 1 μM). The IC50 in assay [1] (with fixed Quinicrine 3 μM) is > 10000 µM; in assay [2] (no autophagy inhibitor), 430 µM; in assay [2] (with fixed Mefloquine 1 μM), < 20 µM; in assay [2] (with fixed Mefloquine 3 μM) it was 40 µM; in assay [2] (with fixed Primaquine 1 μM), 80 µM; in assay [2] (with fixed Primaquine 3 μM), 320 µM. For the same compound, the IC50 in assay [2] (with fixed Quinicrine 1 μM) is < 20 µM; in assay [2] (with fixed Quinicrine 3 μM), 500 µM; in the assay with SW48 KRas Kras WT cells (no autophagy inhibitor), 1000 µM; in the assay with SW48 KRas Kras WT cells (with fixed Mefloquine 1 μM), < 20 µM; with SW48 KRas Kras WT cells (with fixed Mefloquine 3 μM), 600 µM; with SW48 KRas Kras WT cells (with fixed Primaquine 1 μM), 100 µM. In addition, the IC50 with SW48 KRas Kras WT cells (with fixed Primaquine 3 μM) turned out to be 2600 µM; in the assay on SW48 KRas Kras WT cells (with fixed Quinicrine 1 μM), 1100 µM; with SW48 KRas Kras WT cells (with fixed Quinicrine 3 μM), 4800 µM. Also, the tumor growth entry in assay [3] (after day 18, FIG. 1) is given as “continued although at a lower rate than that in Group 1 control”. Moreover, in assay [3] (day 8 to about day 18, compared among groups, FIG. 1), the tumor growth rate entry is recorded as “lowest tumor growth rate”. Moreover, in assay [3] (within about one week, after day 18), the tumor size regressed was ~20 % by weight.
In the case of `[H]/N=C(/N)N/C(=N/[H])NCCc1ccccc1` [Phenformin, phenformin], the IC50 in assay [1] (no autophagy inhibitor) stood at 10.7 µM; in assay [1] (with fixed Chloroquine 1 μM), 19.5 µM; in assay [1] (with fixed Chloroquine 3 μM) it was 16.2 µM; in assay [1] (with fixed Mefloquine 1 μM), 13 µM; in assay [1] (with fixed Quinicrine 1 μM), 23.4 µM; in assay [1] (with fixed Quinicrine 3 μM) it was 33.1 µM. In addition, the IC50 in assay [2] (no autophagy inhibitor) turned out to be 16.2 µM; in assay [2] (with fixed Chloroquine 1 μM), 5.8 µM; in assay [2] (with fixed Chloroquine 3 μM), 4.5 µM; in assay [2] (with fixed Mefloquine 1 μM) it was 1.8 µM; in assay [2] (with fixed Quinicrine 1 μM) it was 6.5 µM; in assay [2] (with fixed Quinicrine 3 μM), 4.3 µM. The IC50 in the assay on SW48 KRas Kras WT cells (no autophagy inhibitor) turned out to be 7.2 µM; in the assay with SW48 KRas Kras WT cells (with fixed Chloroquine 1 μM), 23.4 µM; in the assay on SW48 KRas Kras WT cells (with fixed Chloroquine 3 μM), 11.7 µM; in the assay with SW48 KRas Kras WT cells (with fixed Mefloquine 1 μM), 17.2 µM; in the assay on SW48 KRas Kras WT cells (with fixed Quinicrine 1 μM) it was 11 µM; with SW48 KRas Kras WT cells (with fixed Quinicrine 3 μM), 15.8 µM.
`CCc1ccc(CCOc2ccc(CC3SC(=O)NC3=O)cc2)nc1` (stereo not drawn) [Pioglitizone, pioglitazone]: the IC50 in assay [1] (no autophagy inhibitor) is 183 µM; in assay [1] (with fixed Mefloquine 3 μM) it was 9.7 µM; in assay [2] (no autophagy inhibitor), > 250 µM; in assay [2] (with fixed Mefloquine 3 μM), 0.4 µM; in the assay with SW48 KRas Kras WT cells (no autophagy inhibitor), 154 µM; with SW48 KRas Kras WT cells (with fixed Mefloquine 3 μM), 8.1 µM.
